Results published in paper PMC7162861, “Synthesis, cytotoxicity, pharmacokinetic profile, binding with DNA and BSA of new imidazo[1,2-a]pyrazine-benzo[d]imidazol-5-yl hybrids” (Scientific Reports, 2020).

Key:
M14 = assay: NCI cytotoxicity screen, Melanoma panel; format: cell-based, human; settings: Homo sapiens, single dose 10 µM, negative = lethal, read-out: Percent growth inhibition
Description: (§1) Cytotoxicity was performed at National Cancer Institute (NCI), Bethesda, USA as per their protocols.

LOX IMVI = assay: NCI cytotoxicity screen, Melanoma panel; format: cell-based, human; settings: Homo sapiens, single dose 10 µM, negative = lethal, read-out: Percent growth inhibition
Description: as §1

UACC-62 = assay: NCI cytotoxicity screen, Melanoma panel; format: cell-based, human; settings: Homo sapiens, single dose 10 µM, negative = lethal, read-out: Percent growth inhibition
Description: as §1

K-562 = assay: NCI cytotoxicity screen, Leukemia panel; format: cell-based; settings: Homo sapiens, K562; K-562; single dose 10 µM; negative = lethal; read-out: Percent growth inhibition
Description: as §1

MOLT-4 = assay: NCI cytotoxicity screen, Leukemia panel; format: cell-based; settings: Homo sapiens, MOLT-4, MOLT-4; single dose 10 µM; negative = lethal; read-out: Percent growth inhibition
Description: as §1

SR = assay: NCI cytotoxicity screen, Leukemia panel; format: cell-based; settings: Homo sapiens, single dose 10 µM, negative = lethal, read-out: Percent growth inhibition
Description: as §1

RPMI-8226 = assay: NCI cytotoxicity screen, Leukemia panel; format: cell-based; settings: Homo sapiens; RPMI-8226; single dose 10 µM; negative = lethal; read-out: Percent growth inhibition
Description: as §1

HL-60(TB) = assay: NCI cytotoxicity screen, Leukemia panel; format: cell-based; settings: Homo sapiens, HL-60, HL-60(TB); single dose 10 µM; negative = lethal; read-out: Percent growth inhibition
Description: as §1

CCRF-CEM = assay: NCI cytotoxicity screen, Leukemia panel; format: cell-based; settings: Homo sapiens, single dose 10 µM, negative = lethal, read-out: Percent growth inhibition
Description: as §1

PC-3 = assay: NCI cytotoxicity screen, Prostate Cancer panel; format: cell-based, human; settings: Homo sapiens, single dose 10 µM, negative = lethal, read-out: Percent growth inhibition
Description: as §1

DU-145 = assay: NCI cytotoxicity screen, Prostate Cancer panel; format: cell-based, human; settings: Homo sapiens, single dose 10 µM, negative = lethal, read-out: Percent growth inhibition
Description: as §1

KM12 = assay: NCI cytotoxicity screen, Colon Cancer panel; format: cell-based, human; settings: Homo sapiens, single dose 10 µM, negative = lethal, read-out: Percent growth inhibition
Description: as §1

SW-620 = assay: NCI cytotoxicity screen, Colon Cancer panel; format: cell-based, human; settings: Homo sapiens, single dose 10 µM, negative = lethal, read-out: Percent growth inhibition
Description: as §1

HCC-2998 = assay: NCI cytotoxicity screen, Colon Cancer panel; format: cell-based, human; settings: Homo sapiens; HCC-2998; single dose 10 µM; negative = lethal; read-out: Percent growth inhibition
Description: as §1

HOP-92 = assay: NCI cytotoxicity screen, Non-Small Cell Lung Cancer panel; format: cell-based; settings: Homo sapiens, single dose 10 µM, negative = lethal, read-out: Percent growth inhibition
Description: as §1

NCI-H460 = assay: as above; format: cell-based; settings: Homo sapiens, single dose 10 µM, negative = lethal, read-out: Percent growth inhibition
Description: as §1

EXVX = assay: as above; format: cell-based; settings: Homo sapiens; EXVX; single dose 10 µM; negative = lethal; read-out: Percent growth inhibition
Description: as §1

HOP-62 = assay: as above; format: cell-based; settings: Homo sapiens, single dose 10 µM, negative = lethal, read-out: Percent growth inhibition
Description: as §1

A549/ATCC = assay: as above; format: cell-based; settings: Homo sapiens; A549/ATCC; single dose 10 µM; negative = lethal; read-out: Percent growth inhibition
Description: as §1

COLO 205 = assay: NCI cytotoxicity screen, Colon Cancer panel; format: cell-based; settings: Homo sapiens, single dose 10 µM, negative = lethal, read-out: Percent growth inhibition
Description: as §1

HT29 = assay: NCI cytotoxicity screen, Colon Cancer panel; format: cell-based; settings: Homo sapiens, HT-29; HT29; single dose 10 µM; negative = lethal; read-out: Percent growth inhibition
Description: as §1

HCT-15 = assay: NCI cytotoxicity screen, Colon Cancer panel; format: cell-based; settings: Homo sapiens, single dose 10 µM, negative = lethal, read-out: Percent growth inhibition
Description: as §1

HCT-116 = assay: NCI cytotoxicity screen, Colon Cancer panel; format: cell-based; settings: Homo sapiens, single dose 10 µM, negative = lethal, read-out: Percent growth inhibition
Description: as §1

ACHN = assay: NCI cytotoxicity screen, Renal Cancer panel; format: cell-based; settings: Homo sapiens, single dose 10 µM, negative = lethal, read-out: Percent growth inhibition
Description: as §1

RXF 393 = assay: NCI cytotoxicity screen, Renal Cancer panel; format: cell-based; settings: Homo sapiens, single dose 10 µM, negative = lethal, read-out: Percent growth inhibition
Description: as §1

SN12C = assay: NCI cytotoxicity screen, Renal Cancer panel; format: cell-based; settings: Homo sapiens, single dose 10 µM, negative = lethal, read-out: Percent growth inhibition
Description: as §1

UO-31 = assay: NCI cytotoxicity screen, Renal Cancer panel; format: cell-based; settings: Homo sapiens, single dose 10 µM, negative = lethal, read-out: Percent growth inhibition
Description: as §1

A498 = assay: NCI cytotoxicity screen, Renal Cancer panel; format: cell-based; settings: Homo sapiens, single dose 10 µM, negative = lethal, read-out: Percent growth inhibition
Description: as §1

CAKI-1 = assay: NCI cytotoxicity screen, Renal Cancer panel; format: cell-based; settings: Homo sapiens; CAKI-1; single dose 10 µM; negative = lethal; read-out: Percent growth inhibition
Description: as §1

TK-10 = assay: NCI cytotoxicity screen, Renal Cancer panel; format: cell-based, human; settings: Homo sapiens, single dose 10 µM, negative = lethal, read-out: Percent growth inhibition
Description: as §1

786-0 = assay: NCI cytotoxicity screen, Renal Cancer panel; format: cell-based, human; settings: Homo sapiens, single dose 10 µM, negative = lethal, read-out: Percent growth inhibition
Description: as §1

SNB-19 = assay: NCI cytotoxicity screen, CNS Cancer panel; format: cell-based; settings: Homo sapiens; SNB-19; single dose 10 µM; negative = lethal; read-out: Percent growth inhibition
Description: as §1

SNB-75 = assay: NCI cytotoxicity screen, CNS Cancer panel; format: cell-based; settings: Homo sapiens, single dose 10 µM, negative = lethal, read-out: Percent growth inhibition
Description: as §1

U251 = assay: NCI cytotoxicity screen, CNS Cancer panel; format: cell-based; settings: Homo sapiens, U-251; U251; single dose 10 µM; negative = lethal; read-out: Percent growth inhibition
Description: as §1

SF-295 = assay: NCI cytotoxicity screen, CNS Cancer panel; format: cell-based; settings: Homo sapiens, single dose 10 µM, negative = lethal, read-out: Percent growth inhibition
Description: as §1

SF-539 = assay: NCI cytotoxicity screen, CNS Cancer panel; format: cell-based; settings: Homo sapiens, single dose 10 µM, negative = lethal, read-out: Percent growth inhibition
Description: as §1

SF-268 = assay: NCI cytotoxicity screen, CNS Cancer panel; format: cell-based; settings: Homo sapiens, single dose 10 µM, negative = lethal, read-out: Percent growth inhibition
Description: as §1

MDA-MB-435 = assay: NCI cytotoxicity screen, Melanoma panel; format: cell-based; settings: Homo sapiens, MDA-MB-435, read-out: Percent growth inhibition
Description: as §1

SK-MEL-28 = assay: NCI cytotoxicity screen, Melanoma panel; format: cell-based; settings: Homo sapiens, single dose 10 µM, negative = lethal, read-out: Percent growth inhibition
Description: as §1

SK-MEL-5 = assay: NCI cytotoxicity screen, Melanoma panel; format: cell-based; settings: Homo sapiens, single dose 10 µM, negative = lethal, read-out: Percent growth inhibition
Description: as §1

SK-MEL-2 = assay: NCI cytotoxicity screen, Melanoma panel; format: cell-based; settings: Homo sapiens, single dose 10 µM, negative = lethal, read-out: Percent growth inhibition
Description: as §1

MALME-3M = assay: NCI cytotoxicity screen, Melanoma panel; format: cell-based; settings: Homo sapiens; MALME-3M; single dose 10 µM; negative = lethal; read-out: Percent growth inhibition
Description: as §1

UACC-257 = assay: NCI cytotoxicity screen, Melanoma panel; format: cell-based; settings: Homo sapiens, single dose 10 µM, negative = lethal, read-out: Percent growth inhibition
Description: as §1

[1] = Experimental log P, shake-flask method; format: physicochemical; settings: n-octanol/phosphate buffer pH 7.4, read-out: Exp. Log P
Description: Partition coefficients or experimental log P values of all synthesized compounds (9–23, 30 and 31) were calculated using the shake-flask method. Log P values were determined using n-octanol and phosphate buffer (pH = 7.4) at 10:1 ratio of volumes. Stock solutions (10^−3 M) of compounds were prepared in DMSO. Glass vials were used to make final solutions i.e. stock solution (250 µL) and phosphate buffer (125 µL). To record the absorbance, wavelength was selected based on λmax of the respective compound. Initial absorbance (Ai) for every compound was noted consuming the stock solution in the buffer phase. Now added n-octanol to every vial and shaken well using a mechanical shaker for 50 minutes. To get separation of both phases, glass vials were centrifuged for 35 min. at 2500 rpm. Then, the layer of octanol was separated from glass vial. The final absorbance (Af) of each compound was recorded by using the buffer layer. The values of P for compounds were determined by the following equation (Eq. 8):8 P=Ai−Af/Af×Vw/Vo

Compound: c1cn2cc(-c3ccsc3)nc(-c3ccc4c(c3)ncn4C3CCCCC3)c2n1 [Compound 14, 8-(1-cyclohexyl-1H-benzo[d]imidazol-5-yl)-6-(thiophen-3-yl)imidazo[1,2-a]pyrazine]
- inhibition at 10 µM (M14): 3.43%
- inhibition at 10 µM (LOX IMVI): 14.5%
- inhibition at 10 µM (UACC-62): 18.5%
- inhibition at 10 µM (K-562): 9.6%
- inhibition at 10 µM (MOLT-4): 14.3%
- inhibition at 10 µM (SR): 23.6%
- inhibition at 10 µM (RPMI-8226): 20.8%
- inhibition at 10 µM (HL-60(TB)): 2.65%
- inhibition at 10 µM (CCRF-CEM): 1.1%
- inhibition at 10 µM (PC-3): 17.9%
- inhibition at 10 µM (DU-145): < 1%
- inhibition at 10 µM (KM12): 11.7%
- inhibition at 10 µM (SW-620): < 1%
- inhibition at 10 µM (HCC-2998): < 1%
- inhibition at 10 µM (HOP-92): 25%
- inhibition at 10 µM (NCI-H460): 7.12%
- inhibition at 10 µM (EXVX): < 1%
- inhibition at 10 µM (HOP-62): 7.41%
- inhibition at 10 µM (A549/ATCC): < 1%
- inhibition at 10 µM (COLO 205): < 1%
- inhibition at 10 µM (HT29): 9.2%
- inhibition at 10 µM (HCT-15): 18.8%
- inhibition at 10 µM (HCT-116): 15.8%
- inhibition at 10 µM (ACHN): 4.32%
- inhibition at 10 µM (RXF 393): < 1%
- inhibition at 10 µM (SN12C): 6.33%
- inhibition at 10 µM (UO-31): 23.1%
- inhibition at 10 µM (A498): < 1%
- inhibition at 10 µM (CAKI-1): < 1%
- inhibition at 10 µM (TK-10): < 1%
- inhibition at 10 µM (786-0): < 1%
- inhibition at 10 µM (SNB-19): 3.96%
- inhibition at 10 µM (SNB-75): < 1%
- inhibition at 10 µM (U251): 30.2%
- inhibition at 10 µM (SF-295): < 1%
- inhibition at 10 µM (SF-539): 2.82%
- inhibition at 10 µM (SF-268): 5.01%
- inhibition at 10 µM (MDA-MB-435): 6%
- inhibition at 10 µM (SK-MEL-28): < 1%
- inhibition at 10 µM (SK-MEL-5): 24.8%
- inhibition at 10 µM (SK-MEL-2): 0.58%
- inhibition at 10 µM (MALME-3M): 3.01%
- inhibition at 10 µM (UACC-257): < 1%
- logP [1]: 1.63

Compound: c1cn2cc(-c3ccc4c(c3)ncn4C3CCCCC3)nc(-c3ccc4c(c3)ncn4C3CCCCC3)c2n1 [Compound 30, 6,8-bis(1-cyclohexyl-1H-benzo[d]imidazol-5-yl)imidazo[1,2-a]pyrazine]
- inhibition at 10 µM (M14): < 1%
- inhibition at 10 µM (LOX IMVI): 11.7%
- inhibition at 10 µM (UACC-62): 12.4%
- inhibition at 10 µM (K-562): 47.2%
- inhibition at 10 µM (MOLT-4): 43.6%
- inhibition at 10 µM (SR): 17.1%
- inhibition at 10 µM (RPMI-8226): 52.2%
- inhibition at 10 µM (HL-60(TB)): 32.9%
- inhibition at 10 µM (CCRF-CEM): 35.1%
- inhibition at 10 µM (PC-3): 27.9%
- inhibition at 10 µM (DU-145): 6.22%
- inhibition at 10 µM (KM12): 56.2%
- inhibition at 10 µM (SW-620): < 1%
- inhibition at 10 µM (HCC-2998): < 1%
- inhibition at 10 µM (NCI-H460): 1.35%
- inhibition at 10 µM (EXVX): 9.56%
- inhibition at 10 µM (HOP-62): 20.8%
- inhibition at 10 µM (A549/ATCC): 4.93%
- inhibition at 10 µM (COLO 205): < 1%
- inhibition at 10 µM (HT29): 28.1%
- inhibition at 10 µM (HCT-15): 26%
- inhibition at 10 µM (HCT-116): 15.9%
- inhibition at 10 µM (ACHN): 4.08%
- inhibition at 10 µM (RXF 393): 4.3%
- inhibition at 10 µM (SN12C): 13.9%
- inhibition at 10 µM (UO-31): 26.8%
- inhibition at 10 µM (A498): < 1%
- inhibition at 10 µM (CAKI-1): 9.21%
- inhibition at 10 µM (TK-10): < 1%
- inhibition at 10 µM (786-0): 13.9%
- inhibition at 10 µM (SNB-19): 5.02%
- inhibition at 10 µM (SNB-75): 6.25%
- inhibition at 10 µM (U251): 29.7%
- inhibition at 10 µM (SF-295): 10.4%
- inhibition at 10 µM (SF-539): 25.4%
- inhibition at 10 µM (SF-268): 4.85%
- inhibition at 10 µM (MDA-MB-435): < 1%
- inhibition at 10 µM (SK-MEL-28): < 1%
- inhibition at 10 µM (SK-MEL-5): 20.5%
- inhibition at 10 µM (MALME-3M): 8.16%
- inhibition at 10 µM (UACC-257): 5.79%
- logP [1]: 2.16
